Values quoted from earlier work in PMC3674230 (Chemical communications (Cambridge, England), 2012).

System: Zn(II)-dependent matrix metalloproteinases (MMP)
Conditions: direct metal coordination

IC50: ~25 mM
SMILES: CC(=O)NO [acetohydroxamic acid]
